Results from patent US11021481B2, “Substituted isoindolin-1-ones and 2,3-dihydro-1h-pyrrolo[3,4-c]pyridin-1-ones as HPK1 antagonists” (Nimbus Saturn, Inc., priority 2019, dated 2021).
Where a name gives a salt, the structure may show the parent alone.

Target: HPK1 (Homo sapiens (Human), UniProt Q92918)
Assay: HPK1 biochemical enzyme assay (microfluidic mobility shift assay)
Conditions: 1.5 nM HPK1, ATP 1 mM final, 30 min preincubation, 60 min at RT, Caliper EZ Reader; read-out: HPK1 1000UMATP caliper IC50
In short: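 Ten-point compound titrations (top 3 μM final) preincubated 30 min with HPK1 and substrate, then reaction started with 1 mM ATP and 1 μM substrate, 5 mM MgCl2. After 60 min at RT, reaction terminated and product measured by microfluidic mobility shift.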

Chain of HPK1 (Q92918 whole entry): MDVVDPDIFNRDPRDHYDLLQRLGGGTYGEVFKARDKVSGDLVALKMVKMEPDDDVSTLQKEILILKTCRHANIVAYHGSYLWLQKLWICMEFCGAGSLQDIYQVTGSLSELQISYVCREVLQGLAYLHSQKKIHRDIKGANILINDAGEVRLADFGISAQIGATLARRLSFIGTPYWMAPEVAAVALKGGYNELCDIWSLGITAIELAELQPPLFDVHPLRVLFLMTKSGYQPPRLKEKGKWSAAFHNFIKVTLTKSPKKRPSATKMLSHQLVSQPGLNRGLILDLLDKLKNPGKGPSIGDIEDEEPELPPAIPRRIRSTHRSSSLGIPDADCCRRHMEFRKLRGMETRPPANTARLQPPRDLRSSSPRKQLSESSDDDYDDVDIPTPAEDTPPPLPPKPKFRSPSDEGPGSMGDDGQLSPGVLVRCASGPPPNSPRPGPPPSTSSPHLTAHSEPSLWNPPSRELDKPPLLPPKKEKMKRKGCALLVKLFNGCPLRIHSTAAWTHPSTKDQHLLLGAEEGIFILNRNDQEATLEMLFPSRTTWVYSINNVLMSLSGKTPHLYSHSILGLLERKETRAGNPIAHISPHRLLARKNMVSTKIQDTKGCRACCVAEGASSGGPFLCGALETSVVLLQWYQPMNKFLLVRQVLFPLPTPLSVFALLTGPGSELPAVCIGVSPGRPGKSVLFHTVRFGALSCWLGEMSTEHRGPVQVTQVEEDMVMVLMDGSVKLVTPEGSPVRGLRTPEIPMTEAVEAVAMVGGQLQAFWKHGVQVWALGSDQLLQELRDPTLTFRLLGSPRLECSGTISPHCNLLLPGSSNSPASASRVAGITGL

| SMILES | IC50 |
| --- | --- |
| CN(C)Cc1nc(Nc2ccc(-c3cnc4cc(F)ccn34)c3c2C(=O)NC3)ccc1N1CCOC[C@@H](O)C1 (single isomer, unassigned) [I-820] | < 100 nM |
| C[C@H]1CN(c2ccc(Nc3ccc(-c4cnc5cc(F)ccn45)c4c3C(=O)NC4)nc2CN(C)C)CCO1 [I-529, 7-[[6-[(dimethylamino)-methyl]-5-[(2S)-2-methylmorpho-lin-4-yl]-2-pyridyl]amino]-4-(7-fluoroimidazo [1,2-a]pyridin-3-yl)isoindolin-1-one Bis formic acid salt] | < 100 nM |
| O=C1NCc2c(-c3cnn4c3CCCC4)ccc(Nc3ccc(N4CCC[C@]5(CCNC5=O)C4)cn3)c21 [I-446, (S)-7-(6-((3-oxo-7-(4,5,6,7-tetrahydropyra-zolo[1,5-a]pyridin-3-yl)isoindolin-4-yl)amino)pyri-din-3-yl)-2,7-diazaspiro[4.5] decan-1-one] | < 100 nM |
| CN(C)Cc1nc(Nc2cnc(-c3cccc4c3ccn4C)c3c2C(=O)NC3)ccc1[C@H]1CCOC1 [I-547, (R)-7-((6-((dimethylamino)-methyl)-5-(tetrahydrofuran-3-yl)pyridin-2-yl)amino)-4-(1-methyl-1H-indol-4-yl)-2,3-dihydro-1H-pyrrolo[3,4-c]pyridin-1-one] | < 100 nM |
| CC1(CO)CCN(c2ccc(Nc3ccc(-c4cnc5cc(F)ccn45)c4c3C(=O)NC4)nc2)CC1 [I-433, 4-(7-fluoroimidazo [1,2-a]pyridin-3-yl)-7-((5-(4-(hydroxymeth-yl]-4-methylpiperidin-1-yl)pyridin-2-yl)amino)isoin-dolin-1-one] | < 100 nM |
| C[C@H](O)[C@H]1CCCN(c2ccc(Nc3ccc(-c4cnc5cc(F)ccn45)c4c3C(=O)NC4)nc2)C1 (stereo in doubt) [I-356, 4-(7-fluoroimidazo [1,2-a]pyridin-3-yl)-7-((5-((R)-3-((R)-1-hydroxyethyl)piperidin-1-yl)pyridin-2-yl)amino)isoin-dolin-1-one] | < 100 nM |
| CNC1(C)CCN(c2ccc(Nc3cnc(-c4ccnc5c4ccn5C)c4c3C(=O)NC4)nc2)CC1 [I-244, 7-[[5-[4-methyl-4-(methylamino)-1-piperidyl]-2-pyridyl]-amino]-4-(1-methylpyrrolo [2,3-b]pyridin-4-yl)-2,3-dihydropyrrolo [3,4-c]pyridin-1-one] | < 100 nM |
| CC(C)(C)NCc1nc(Nc2ccc(-c3cnc4cc(F)ccn34)c3c2C(=O)NC3)ccc1C1CCOC1 (stereo not shown) [I-848, 7-[[6-[(tert-butylamino)methyl]-5-tetrahydrofuran-3-yl-2-pyridyl]amino]-4-(7-fluoroimidazo [1,2-a]pyridin-3-yl)isoindolin-1-one] | < 100 nM |
| CN(C)Cc1nc(Nc2cnc(-c3ccnc4c3ccn4C)c3c2C(=O)NC3)ccc1[C@@H]1CCOC1 (stereo in doubt) [I-707] | < 100 nM |
| O=C1NCc2c(-c3cnc4ccccn34)ccc(Nc3ccc(N4CC5CCC(C4)N5)cn3)c21 [I-101, 7-[[5-(3,8-diazabicyclo [3,2.1]octan-3-yl)-2-pyridyl]amino]-4-imidazo[1,2-a]pyridin-3-yl-isoindolin-1-one] | < 100 nM |
| CN(C)Cc1nc(Nc2ccc(-c3cnc4cc(F)ccn34)c3c2C(=O)NC3)ccc1OC1CCOCC1 [I-553, 7-[[6-[(dimethylamino)-methyl]-5-tetrahydropy-ran-4-yloxy-2-pyridyl]amino]-4-(7-fluoroimidazo [1,2-a]pyridin-3-yl)isoindolin-1-one] | < 100 nM |
| CN(C)Cc1nc(Nc2ccc(-c3cnc4cnccn34)c3c2C(=O)NC3)ccc1[C@H]1CCOC1 [I-713, (R)-7-((6-((dimethylamino)-methyl)-5-(tetrahydrofuran-3-yl)pyridin-2-yl)amino)-4-(imidazo[1,2-a]pyrazin-3-yl)isoindolin-1-one] | < 100 nM |
| Cc1ccn2c(-c3ccc(Nc4ccc(N5CCO[C@H](CO)C5)cn4)c4c3CNC4=O)cnc2n1 [I-452, 7-[[5-[(2S)-2-(hydroxymeth-yl)morpholin-4-yl]-2-pyridyl]amino]-4-(7-methylimidazo [1,2-a]pyrimidin-3-yl)isoindolin-1-one] | < 100 nM |
| CN1CCN(CC2(O)CCN(c3ccc(Nc4ccc(-c5cnc6cc(Cl)ccn56)c5c4C(=O)NC5)nc3)CC2)CC1 [I-437, 4-(7-chloroimidazo [1,2-a]pyridin-3-yl)-7-((5-(4-hydroxy-4-((4-methylpiperazin-1-yl)methyl)piper-idin-1-yl)pyridin-2-yl)amino)isoin-dolin-1-one] | < 100 nM |
| CC1COc2c(-c3ccc(Nc4ccc(N5CCN(C)CC5)cn4)c4c3CNC4=O)cnn2C1 (stereo in doubt) [I-259, (R)-4-(6-methyl-6,7-dihydro-5H-pyrazolo[5,1-b][1,3]oxazin-3-yl)-7-((5-(4-methylpiperazin-1-yl)pyridin-2-yl)amino)isoin-dolin-1-one] | 100 to 1000 nM |
| Cc1cnc2c(-c3ccc(Nc4ccc(N5CCN(C)CC5)cn4)c4c3CNC4=O)cnn2c1 [I-111, 7-[[5-(4-methylpiperazin-1-yl)-2-pyridyl]amino]-4-(6-methylpyrazolo[1,5-a]pyrimidin-3-yl)isoindolin-1-one] | < 100 nM |

| SMILES | IC50 |
| --- | --- |
| Cc1cnn2c(-c3ccc(Nc4ccc([C@H]5CCOC5)c(CN(C)C)n4)c4c3CNC4=O)cnc2c1 [I-537, (R)-7-((6-((dimethylamino)-methyl)-5-(tetrahydrofuran-3-yl)pyridin-2-yl)amino)-4-(7-methylimidazo [1,2-b]pyridazin-3-yl)isoindolin-1-one] | < 100 nM |
| O=C1NCc2c(-c3cnc4n3CCCC4)ccc(Nc3ccc(N4CCC(O)CC4)cn3)c21 [I-296, 7-((5-(4-hydroxy-piperidin-1-yl)pyridin-2-yl)amino)-4-(5,6,7,8-tetrahydro-imidazo[1,2-a]pyridin-3-yl)isoindolin-1-one] | 100 to 1000 nM |
| C[C@H](c1ccc(Nc2ccc(-c3cnc4cc(F)ccn34)c3c2C(=O)NC3)nc1)N1CCOCC1 (single isomer, unassigned) [I-639] | < 100 nM |
| O=C1NCc2c(-c3cnc4cc(F)ccn34)ccc(Nc3ccc([C@H]4CCOC4)c(CN4CCCC4)n3)c21 [I-515, (R)-4-(7-fluoroimidazo [1,2-a]pyridin-3-yl)-7-((6-(pyrrolidin-1-ylmethyl)-5-(tetrahydrofuran-3-yl)pyridin-2-yl)amino)isoin-dolin-1-one] | < 100 nM |
| CC(C)N1CCN(c2ccc(Nc3cnc(-c4ccnc5c4ccn5C)c4c3C(=O)NC4)nc2)CC1 [I-319, 7-((5-(4-isopropylpiperazin-1-yl)pyridin-2-yl)amino)-4-(1-methyl-1H-pyrrolo[2,3-b]pyridin-4-yl)-2,3-dihydro-1H-pyrrolo[3,4-c]pyridin-1-one] | < 100 nM |
| O=C1NCc2c(-c3cnc4cc(F)ccn34)ccc(Nc3ccc([C@@H]4CCOC4)c(CN4CCC[C@H]4CO)n3)c21 [I-828, 4-(7-fluoroimidazo [1,2-a]pyridin-3-yl)-7-((6-(((S)-2-(hydroxymeth-yl)pyrrolidin-1-yl)methyl)-5-((S)-THF-3-yl)pyridin-2-yl)amino)isoin-dolin-1-one] | < 100 nM |
| Cn1ccc2c(-c3ncc(Nc4cccc(N5C[C@@H](N6CCC6)CC5=O)n4)c4c3CNC4=O)ccnc21 [I-725, (S)-7-((6-(4-(azetidin-1-yl)-2-oxopyrrolidin-1-yl)pyridin-2-yl)amino)-4-(1-methyl-1H-pyrrolo[2,3-b]pyridin-4-yl)-2,3-dihydro-1H-pyrrolo[3,4-c]pyridin-1-one] | < 100 nM |
| Cn1ccc2c(-c3ccc(Nc4ccc(N5CCNCC5)cn4)c4c3CNC4=O)cccc21 [I-102, 4-(1-methylindol-4-yl)-7-[(5-piperazin-1-yl-2-pyridyl)amino] isoindolin-1-one] | < 100 nM |
| CN1CCN(c2ccc(Nc3ccc(-c4ccnc5c4ccn5Cc4ccccc4)c4c3C(=O)NC4)nc2)CC1 [I-257, 4-(1-benzyl-1H-pyrrolo[2,3-b]pyridin-4-yl)-7-((5-(4-methylpiperazin-1-yl)pyridin-2-yl)amino)isoin-dolin-1-one] | 100 to 1000 nM |
| CN(Cc1nc(Nc2ccc(-c3cnc4cc(F)ccn34)c3c2C(=O)NC3)ccc1C1CCOC1)CC(F)(F)F (stereo in doubt) [I-765, (R)-4-(7-fluoroimidazo [1,2-a]pyridin-3-yl)-7-((6-((methyl(2,2,2 trifluoroethyl)amino)methyl)-5-(tetrahydrofuran-3-yl)pyridin-2-yl)amino)isoin-dolin-1-one] | < 100 nM |
| O=C1NCc2c(-c3ccnc4cnccc34)ncc(Nc3ccc(N4CCC(O)CC4)cn3)c21 [I-592, 7-((5-(4-hydroxypiperidin-1-yl)pyridin-2-yl)amino)-4-(1,7-naphthyridin-4-yl)-2,3-dihydro-1H-pyrrolo[3,4-c]pyridin-1-one] | > 1000 nM |
| COCC1CN(c2ccc(Nc3ccc(-c4ncnc5c4ccn5C)c4c3C(=O)NC4)nc2)CCO1 (stereo in doubt) [I-649, (R)-7-((5-(2-(methylmeth-yl)morpho-lino)pyridin-2-yl)amino)-4-(7-methyl-7]-4-pyrrolo[2,3-d]pyrimidin-4-yl)isoindolin-1-one] | < 100 nM |
| Cc1cc(Nc2cnc(-c3ccnc4c3ccn4C)c3c2C(=O)NC3)nc(N2CC[C@H]3CN(C)C[C@H]32)c1 [I-643, 4-(1-methyl-1H-pyrrolo[2,3-b]pyridin-4-yl)-7-((4-methyl-6-((3aS,6aS)-5-methylhcxahydropyrrolo[3,4-b]pyrrol-1(2H)-yl)pyridin-2-yl)amino)-2,3-dihydro-1H-pyrrolo[3,4-c]pyridin-1-one] | < 100 nM |
| COC[C@H]1CN(c2ccc(Nc3ccc(-c4cnc5c(F)c(C)ccn45)c4c3C(=O)NC4)nc2)CCO1 [I-580, (R)-4-(8-fluoro-7-methylimidazo [1,2-a]pyridin-3-yl)-7-((5-(2-(methoxymeth-yl)morpho-lino)pyridin-2-yl)amino)isoin-dolin-1-one] | < 100 nM |
| Cn1ccc2c(-c3ncc(Nc4cccc(N5CCNCC5)n4)c4c3CNC4=O)ccnc21 [I-232, 4-(1-methylpyrrolo [2,3-b]pyridin-4-yl)-7-[(6-piperazin-1-yl-2-pyridyl)amino]-2,3-dihydropyrrolo [3,4-c]pyridin-1-one] | < 100 nM |
